The results in this text go back to the NIST ThermoML archive (doi:10.1016/j.jct.2015.04.006).

The structures appear in SMILES notation. Numbers after ± are expanded uncertainties.

For data set [1] the following is noted: 100 kPa, Liquid; for speed of sound: Frequency=3 MHz, Sing-around technique in a fixed-path interferometer; for mass density: Vibrating tube method.
The nature of data set [2]: mn = molality of the nth substance listed, in mol/kg. The conditions noted are these: 100 kPa, Liquid, m2 = 0; for speed of sound: Frequency=3 MHz, Sing-around technique in a fixed-path interferometer; for mass density: Vibrating tube method.

As a reminder, the speed of sound is the propagation velocity of pressure waves in the medium. In general, mass density refers to the mass of a sample divided by its volume. For the compound `C[S+](C)[O-]` [dimethyl sulfoxide], the speed of sound in data set [1] (298.15 K) was 1484.6 ± 1.2 m/s; in data set [1] (303.15 K) it was 1467.7 ± 1.2 m/s; in data set [1] (308.15 K), 1450.8 ± 1.2 m/s; in data set [1] (313.15 K) it was 1434.1 ± 1.2 m/s; in data set [1] (318.15 K), 1417.5 ± 1.2 m/s. The mass density in data set [1] (298.15 K) is given as 1095.28 ± 0.21 kg/m3; in data set [1] (303.15 K), 1090.26 ± 0.26 kg/m3; in data set [1] (308.15 K), 1085.24 ± 0.24 kg/m3; in data set [1] (313.15 K), 1080.22 ± 0.24 kg/m3; in data set [1] (318.15 K) it was 1075.21 ± 0.26 kg/m3.

As for `C[S+](C)[O-]` [dimethyl sulfoxide] + CCCCCCCC[N+]1(C)CCOCC1.O=S(=O)([N-]S(=O)(=O)C(F)(F)F)C(F)(F)F, the speed of sound is reported as 1484.6 ± 1.2 m/s in data set [2] (298.15 K); 1467.7 ± 1.2 m/s in data set [2] (303.15 K); 1450.8 ± 1.2 m/s in data set [2] (308.15 K); 1434.1 ± 1.2 m/s in data set [2] (313.15 K); 1417.5 ± 1.2 m/s in data set [2] (318.15 K). Besides, the mass density in data set [2] (298.15 K) was 1095.28 ± 0.21 kg/m3; in data set [2] (303.15 K), 1090.26 ± 0.21 kg/m3; in data set [2] (308.15 K) it was 1085.24 ± 0.21 kg/m3; in data set [2] (313.15 K), 1080.22 ± 0.21 kg/m3; in data set [2] (318.15 K) it was 1075.21 ± 0.21 kg/m3.

As for `C[S+](C)[O-]` [dimethyl sulfoxide] + CCCC[N+]1(C)CCOCC1.O=S(=O)([N-]S(=O)(=O)C(F)(F)F)C(F)(F)F, the speed of sound amounted to 1484.6 ± 1.2 m/s in data set [2] (298.15 K); 1467.7 ± 1.2 m/s in data set [2] (303.15 K); 1450.8 ± 1.2 m/s in data set [2] (308.15 K); 1434.1 ± 1.2 m/s in data set [2] (313.15 K); 1417.5 ± 1.2 m/s in data set [2] (318.15 K). Further, the mass density in data set [2] (298.15 K) is 1095.28 ± 0.24 kg/m3; in data set [2] (303.15 K), 1090.26 ± 0.24 kg/m3; in data set [2] (308.15 K) it was 1085.24 ± 0.24 kg/m3; in data set [2] (313.15 K), 1080.22 ± 0.24 kg/m3; in data set [2] (318.15 K), 1075.21 ± 0.24 kg/m3.

For the compound `C[S+](C)[O-]` [dimethyl sulfoxide] + CC[N+]1(C)CCOCC1.O=S(=O)([N-]S(=O)(=O)C(F)(F)F)C(F)(F)F, the speed of sound in data set [2] (298.15 K) turned out to be 1484.6 ± 1.2 m/s; in data set [2] (303.15 K) it was 1467.7 ± 1.2 m/s; in data set [2] (308.15 K), 1450.8 ± 1.2 m/s; in data set [2] (313.15 K) it was 1434.1 ± 1.2 m/s; in data set [2] (318.15 K), 1417.5 ± 1.2 m/s. The mass density in data set [2] (298.15 K) came out at 1095.28 ± 0.26 kg/m3; in data set [2] (303.15 K), 1090.26 ± 0.26 kg/m3; in data set [2] (308.15 K) it was 1085.24 ± 0.26 kg/m3; in data set [2] (313.15 K), 1080.22 ± 0.26 kg/m3; in data set [2] (318.15 K), 1075.21 ± 0.26 kg/m3.
